Patent publication US20110123617A1, “CLIOQUINOL FOR THE TREATMENT OF HEMATOLOGICAL MALIGNANCIES” (priority 2007, published 2011)
“Also recorded” adds a separate entry of the source.

Columns and labels:
[1] = tested on: p21; experiment: Immunoblotting of p21; assay type: cell-based; details: low micromolar concentrations
Text: A) Effect of increasing concentrations of clioquinol on LP1 and MY5 multiple myeloma cells at twenty hours after clioquinol treatment; determined by SDS-PAGE immunoblotting. B) Effect of increasing concentrations of clioquinol on the G0/G1 ratio in AML3, U937, LP1 and MY5 cells at twenty hours after clioquinol treatment; determined by PI staining and flow cytometry. To prepare cytosolic extracts, NIH3T3 cells and myeloma cells were washed with phosphate-buffered saline (PBS, pH 7.4) and suspending in lysis buffer [10 mM Tris (pH 7.4), 150 mM NaCl, 0.1% Triton X-100, 0.5% sodium deoxycholate, and 5 mM EDTA] containing protease inhibitors (Complete tablets, Roche, Indianapolis, Ind.). Protein concentrations were determined by the Bradford assay. Immunoblot assays were performed by subjecting equal amounts of protein to SDS-PAGE gels followed by transfer to Nitrocellulose membranes. Membranes were probed with polyclonal rabbit anti-human cyclin D2 (0.5 μg/ml, both from Santa Cruz Biotech, Santa Cruz, Calif.), or monoclonal mouse-anti human p21 (1:200 v/v, Santa Cruz Biotech), monoclonal mouse-anti human p27 (1:2,500 v/v BD Transduction Laboratories), polyclonal mouse-anti human ubiquitin (1:2,000 v/v Calbiochem) and monoclonal mouse-anti-β-actin (1:10,000 v/v) (Sigma, St. Lois, Mo.). […] Detection was performed by the Enhanced Chemical Luminescence (ECL) method (Pierce, Rockford, Ill.).

[2] = tested on: proteasome in normal hematopoietic cells; experiment: Proteasome activity in normal hematopoietic cells (PBSC); assay type: cell-based, human
Method: Proteasome activity of primary acute myeloid leukemia (AML) blasts or normal peripheral blood stem cells (PBSC) after twenty hours of treatment with clioquinol (CQ), or an equimolar concentration of […] and CuCl2 (Cu). After treatment, the preferential chymotrypsin-like substrate Suc-LLVY-AMC was added and the rate of free AMC was measured over time with a florescent spectrophotometric plate reader (excitation=380 nm, emission=460 nm). Cellular proteins were extracted from cells with lysis buffer (50 mM HEPES pH 7.5, 150 mM NaCl, 2 mM ATP, and 1% Triton X-100). The chymotrypsin-like activity of the proteasome was measured by incubating equal amounts of protein with the preferential chymotrypsin-like substrate Suc-LLVY-AMC in assay buffer (50 mM Tris-HCl, pH 7.5, 150 mM NaCl) for two hours. After incubation, […] and the rate of free AMC was measured over time with a florescent spectrophotometric plate reader (excitation=380 nm, emission=460 nm). The inventors examined the effect of clioquinol and copper on primary AML cells and normal hematopoietic cells. Primary AML were obtained from the peripheral blood of patients with AML. Normal hematopoietic stem cells (PBSC) were obtained from the peripheral blood of volunteers donating stem cells for allotransplant. […] After incubation, cell lysates were prepared and the enzymatic activity of the proteasome measured as above.

[3] = tested on: cyclin D2 promoter; experiment: High throughput screen for inhibitors of cyclin D2 transactivation (luciferase assay); assay type: cell-based, mouse; details: NIH 3T3 cells over-expressing c-maf, ~5 μM, sixteen hours
Text: The promoter of cyclin D2 (−894 to −4), containing c-maf responsive element sequence (MARE), was cloned from HeLa cell genomic DNA and subcloned into the pGL2 luciferase reporter vector (Promega, Madison, Wis.). This construct was co-transfected with pcDNA3.1 containing a neomycin resistance gene into NIH3T3 wild type cells and NIH3T3 cells stably over-expressing c-maf-IRES-GFP. Cells stably expressing c-maf, GFP, and luciferase were selected for further application. NIH3T3 cells stably expressing c-maf and the cyclin D2 promoter driving luciferase (13,000 cells per well) were plated in 96-well plates by the Biomek FX liquid handler (Beckman, Fullerton, Calif.). The same workstation was used for plate formatting and reagent distribution. […] After incubation, cyclin D2 transactivation was assessed by the luciferase assay and viability was assessed by the MTS assay. Luciferase activity was assessed according to the manufacturer's instructions (Promega, Madison, Wis.). […] After 10 min incubation, an equal volume of Bright-Glo Luciferase substrate (Promega) was added and the luminescence signal was detected with a 96-well Luminoskan luminescence plate reader (Thermo Labsystem, Waltham, Mass.) with a 5 second integration. […] Sixteen hours after the addition of the compounds, luciferase expression was measured as a marker of cyclin D2 transactivation. […]

Question: Which results are given for `Oc1c(I)cc(Cl)c2cccnc12` [clioquinol, 5-chloro-7-iodo-8-hydroxyquinoline]?
Answer: expression of p21 [1]: increased expression; enzymatic activity of the proteasome [2]: no effect; also recorded: no proteasomal inhibition was detected; cyclin D2 transactivation (luciferase expression) [3]: c-maf independent inhibitors of the cyclin D2 promoter
